Key:
Type in all cases: cell-based, murine
[1] = system: hSSPN-Luciferase reporter cells (human sarcospan promoter reporter in C2C12); experiment: hSSPN-Luciferase reporter assay (Bright-Glo); details: doses between 3.9 nm to 1 μM, 48 hours (FIG. 10b)
Description: C2C12 immortalized murine myoblasts cultured in growth media consisting of DMEM (Gibco) with 20% Fetal Bovine Serum (Sigma-Aldrich) at 37° C. with 5% CO2 were transfected with the hSSPN-EGFP or hSSPN-Luciferase linearized plasmids using Lipofectamine 3000 Transfection Reagent (Thermo Fisher Scientific). Transfected cells were selected using 800 μg/ml of G418 (Sigma-Aldrich) for 4 weeks to generate stable cell lines expressing reporter protein under control of the human SSPN promoter.
hSSPN-Luciferase myoblasts were cultured as described above. After 48 hours of treatment, plates were allowed to equilibrate to room temperature before the media was aspirated using an EL406 combination washer dispenser at room temperature. Bright-Glo luciferase assay system reagent (Promega) and differentiation media were added to cells at a 1:2 dilution using a Multidrop 384. After a 3-minute incubation at room temperature, luminescence signal was quantified using an Envision plate reader (PerkinElmer). The relative luminescence units were analyzed to determine fold change of treated over vehicle treated cells.
Cells were treated for 48 hours beginning at day 2 of differentiation with DMSO (vehicle control, ATCC), felodipine (Sigma), nilvadipine (Sigma), alloxazine (Sigma), GW5074 (Sigma), methylthioadenosine (Santa Cruz Biotechnology), or ezutromid (Cayman Chemicals) diluted in cell type specific differentiation media at doses listed in the figures. For gene expression studies, each treatment was performed in duplicate. For protein studies, each treatment was performed with single or double replicates.

SSPN protein = SSPN protein immunoblot in C2C12 wild-type myotubes; details: C2C12 cells, 1 μM-10 μM, 48 hours, immunoblot normalized to GAPDH (FIG. 10e)
Description: Cells were treated for 48 hours beginning at day 2 of differentiation with DMSO (vehicle control, ATCC), felodipine (Sigma), nilvadipine (Sigma), alloxazine (Sigma), GW5074 (Sigma), methylthioadenosine (Santa Cruz Biotechnology), or ezutromid (Cayman Chemicals) diluted in cell type specific differentiation media at doses listed in the figures. For gene expression studies, each treatment was performed in duplicate. For protein studies, each treatment was performed with single or double replicates. C2C12 murine myotubes treated for 48 hours were lysed using RIPA buffer (Thermo Fisher Scientific) containing a protease inhibitor cocktail (0.6 μg/ml pepstatin A, 0.5 μg/ml aprotinin, 0.5 μg/ml leupeptin, 0.1 mM PMSF, 0.75 mM benzamidine, 5 μM calpain I inhibitor, 5 μM calpeptin). […] The supernatant was collected, quantified for protein concentration using the DC protein assay (Bio-Rad), and normalized to 2 mg/ml in water and Laemmli sample buffer with a final concentration of 10% glycerol (Sigma-Aldrich), 5% beta-mercaptoethanol (Sigma-Aldrich), 3% sodium dodecyl sulfate (Sigma-Aldrich), and 0.05% bromophenol blue (Sigma-Aldrich). […] Autoradiography films were developed using a SRX-101A tabletop processor (Konica Minolta), scanned to a digital file, and analyzed by densitometry of bands using ImageJ version 1.51s. […]

C2C12 wild-type myotubes = experiment: Fusion index and myotube morphology in wild-type myotubes
mdx myotubes = experiment: Fusion index in mdx myotubes; details: mdx myotubes (FIG. 12c-d)

Question: `CCOC(=O)C1=C(C)NC(C)=C(C(=O)OC)C1c1cccc(Cl)c1Cl` (stereo not drawn) [Felodipine, 5-O-ethyl 3-O-methyl 4-(2,3-dichlorophenyl)-2,6-dimethyl-1,4-dihydropyridine-3,5-dicarboxylate] was tested. Which “hSSPN-Luciferase reporter activity, counterscreen” value [1] did it give?
Answer: increased activity

Question: And the SSPN protein levels (SSPN protein)?
Answer: increases sarcospan protein levels

Question: And the SSPN protein levels (SSPN protein; listed as felodipine)?
Answer: increase in SSPN protein levels

Question: What about the “fusion index (nuclei in myosin heavy chain positive area/total nuclei in field)” value (C2C12 wild-type myotubes; wild-type myotubes (FIG. 12c-d)) of the same compound?
Answer: does not increase fusion index

Question: And the “formation of hypertrophic myotubes” value (C2C12 wild-type myotubes; wild-type myotubes (FIG. 12e-f))?
Answer: does induce the formation of hypertrophic wild-type myotubes

Question: What about the “fusion index (nuclei in myosin heavy chain positive area/total nuclei in field)” value (mdx myotubes) of the same compound?
Answer: does not increase fusion index
